The source of these data is PMC5111741 (The European Journal of Neuroscience, 2016).

In this assay the target is T1, rat prestin labelled with GFP (Rattus norvegicus, UniProt Q9EPH0).
T1 sequence (Q9EPH0 1-744): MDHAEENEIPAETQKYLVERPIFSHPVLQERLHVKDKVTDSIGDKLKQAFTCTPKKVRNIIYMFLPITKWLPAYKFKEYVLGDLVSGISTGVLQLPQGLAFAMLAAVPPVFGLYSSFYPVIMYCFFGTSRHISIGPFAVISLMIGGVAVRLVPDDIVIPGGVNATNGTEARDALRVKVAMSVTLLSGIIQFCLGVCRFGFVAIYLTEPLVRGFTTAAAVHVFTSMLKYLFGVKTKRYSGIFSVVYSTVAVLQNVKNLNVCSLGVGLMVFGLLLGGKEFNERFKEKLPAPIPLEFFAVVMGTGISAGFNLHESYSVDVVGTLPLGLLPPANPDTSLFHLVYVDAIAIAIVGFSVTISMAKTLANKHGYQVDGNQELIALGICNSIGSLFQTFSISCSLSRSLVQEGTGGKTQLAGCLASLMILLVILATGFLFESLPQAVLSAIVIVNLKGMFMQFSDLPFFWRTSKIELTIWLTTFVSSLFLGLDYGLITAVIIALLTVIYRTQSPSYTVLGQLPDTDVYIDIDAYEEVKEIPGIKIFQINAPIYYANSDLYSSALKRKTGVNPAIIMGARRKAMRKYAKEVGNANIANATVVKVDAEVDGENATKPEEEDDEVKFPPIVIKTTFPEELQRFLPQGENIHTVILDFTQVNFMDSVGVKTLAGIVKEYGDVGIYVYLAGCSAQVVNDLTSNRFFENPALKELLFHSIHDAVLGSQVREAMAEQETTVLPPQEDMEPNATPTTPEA
The assay can be described thus: whole-cell patch clamp of transfected HEK […] cells, nonlinear capacitance. The format is cell-based. As to conditions: 500 μM extracellular 9-AC; intracellular 135 mM CsCl; pH 7.2; 21.5 °C. A general note: Patch clamp records ionic current or voltage across a cell membrane.

As for `O=C(O)c1c2ccccc2cc2ccccc12` [9‐anthracenecarboxylic acid], the “Q max reduction at 500 μM” value came to 59 ± 19%.
